Values quoted from earlier work as cited in patent publication US20150237898A1, “STEVIOSIDE BLENDS” (Cargill, Incorporated, priority 2012, published 2015).
Entries after “also recorded” stand apart in the source; their conditions may differ.

Conditions: literature

Row | Compound | sweetening power / sweetness compared with other glycosides | bitterness compared with other glycosides
1 | C=C1C[C@@]23CC[C@H]4[C@@](C)(CCC[C@@]4(C)C(=O)O[C@@H]4O[C@H](CO)[C@@H](O)[C@H](O)[C@H]4O)[C@@H]2CC[C@]1(O[C@@H]1O[C@H](CO)[C@@H](O)[C@H](O[C@@H]2O[C@H](CO)[C@@H](O)[C@H](O)[C@H]2O)[C@H]1O[C@@H]1O[C@H](CO)[C@@H](O)[C@H](O)[C@H]1O)C3 [Reb A, rebaudioside A] | highest sweetening power of all the glycosides; also recorded: more potent and more pleasant tasting than stevioside | 
2 | C=C1C[C@@]23CC[C@H]4[C@@](C)(CCC[C@@]4(C)C(=O)O[C@@H]4O[C@H](CO)[C@@H](O)[C@H](O)[C@H]4O)[C@@H]2CC[C@]1(O[C@@H]1O[C@H](CO)[C@@H](O)[C@H](O)[C@H]1O[C@@H]1O[C@H](CO)[C@@H](O)[C@H](O)[C@H]1O)C3 [stevioside] | much less sweet | much more bitter than Reb A and other glycosides
